In brackets after ≈: the same amount, converted by molar mass.
Key:
hFAP (M39-A757) = hFAP (M39-A757) (Homo sapiens (Human), UniProt Q12884); test: hFAP binding assay (surface plasmon resonance); details: SPR, 20° C.; for hFAP Binding assay k(off) / hFAP Binding assay k(on): single cycle kinetics; for Kd: n = 1 or geometric mean n = 2-4
[1] = biological target: Prolyl endopeptidase, Prolyl Oligopeptidase (hPREP) (Homo sapiens (Human), UniProt P48147); test: hPrep inhibition assay; format: biochemical; details: hPREP 0.6 nM, Z-Gly-Pro-amino-methylcoumarin 50 μM; read-out: PREP IC50
In short: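 Recombinant human PREP at 0.6 nM final with Z-Gly-Pro-AMC substrate at 50 μM final in Tris-HCl pH 7.5, NaCl, Triton X-100, glutathione; 15 min rt preincubation then 20 min rt reaction in dark. AMC fluorescence (ex 340/em 460 nm); IC50 from one-site dose-response fit of % inhibition.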

FAP [2] = biological target: FAP (Mus musculus (Mouse), UniProt P97321); test: FAP plasma inhibition assay, mouse plasma; format: biochemical; details: mouse plasma diluted 1:67, Ala-Pro-AMC 75 μM
Method: This assay was adapted from the method described in Example 237 for detection of FAP target engagement enzyme activity in plasma. Plasma (anticoagulant K2EDTA) was used as the enzyme source: Human plasma (Pooled from AZ Biobank), Mouse plasma (AZ AST Biobank), and Cynomolgus plasma (BioIVT, #NHP00PLK2FNN, lot CYN222895). 384-Well black fluotrack PS plates (Greiner 781076) were used. 20 μL diluted plasma (Cynomolgus and Human plasma dilution 1:40, Mouse plasma dilution 1:67) in buffer (PBS, 0.1% BSA) was added to 0.6 μL compounds (in DMSO). Compounds were tested using 10 CR, 3 fold dilution series from 500 nM FAC. Two replicates for each assay point were run on the same plate. A fluorescence blank read was taken before substrate addition. […] Plates were incubated for 40 min at rt in the dark. […] IC50 values were determined by plotting % inhibition versus log compound concentration.

Kinetic solubility = details: kinetic from dmso stock
Method: Kinetic solubility was measured as described in Comput Aided Mol Des 2015, 29, 795.

[3] = Metabolic stability in human hepatocytes (hHep); format: in vitro ADME; details: n = 1 or geometric mean of n = 2
[4] = Metabolic stability in rat hepatocytes (rHep); details: n = 1 or geometric mean of n = 2-3
Caco-2 cell permeability = details: human
Method: Caco-2 cell permeability was measured as described in Mol Pharm 2017, 14, 1601.

[5] = Metabolic stability in human liver microsomes (HLM); details: human
Method: Metabolic stability in HLM was measured as described in J Comput Aided Mol Des 2015, 29, 795.

[6] = biological target: human Fibroblast activation protein alpha (hFAP) (Homo sapiens (Human), UniProt Q12884); test: hFAP inhibition assay (tight binders); format: biochemical; details: Ala-Pro-AMC 20 μM, n = 1 or geometric mean n = 2-6; also: hFAP 2.4 pM
Method: The plates were read on a PHERAstar® reader with excitation 340 nm and emission 460 nm. Data were analyzed in Genedata Screener®. IC50 values were determined by plotting % inhibition versus log compound concentration and using a one site dose response model.

FAP [7] = biological target: FAP (Homo sapiens (Human), UniProt Q12884); test: hFAP inhibition assay; format: biochemical; details: Ala-Pro-AMC 20 μM, n = 1 or geometric mean n = 2-3
In short: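 Human FAP (0.48 nM) in 100 mM Tris HCl, 100 mM NaCl, 0.05% Chaps, pH 7.4 was preincubated 15 min at rt in the dark with compounds (10-point, 3-fold series from 50 μM). Substrate was added from a 40 μM solution, then 30 min at rt. Fluorescence read at ex 340/em 460 nm; IC50 from one-site dose-response fit of % inhibition.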

[8] = Solubility, kinetic solubility, n = 1 or average of n = 2-3
[9] = HLM CLint, n = 1 or average of n = 2-3

Sequence of hFAP (M39-A757) (Q12884 39-757): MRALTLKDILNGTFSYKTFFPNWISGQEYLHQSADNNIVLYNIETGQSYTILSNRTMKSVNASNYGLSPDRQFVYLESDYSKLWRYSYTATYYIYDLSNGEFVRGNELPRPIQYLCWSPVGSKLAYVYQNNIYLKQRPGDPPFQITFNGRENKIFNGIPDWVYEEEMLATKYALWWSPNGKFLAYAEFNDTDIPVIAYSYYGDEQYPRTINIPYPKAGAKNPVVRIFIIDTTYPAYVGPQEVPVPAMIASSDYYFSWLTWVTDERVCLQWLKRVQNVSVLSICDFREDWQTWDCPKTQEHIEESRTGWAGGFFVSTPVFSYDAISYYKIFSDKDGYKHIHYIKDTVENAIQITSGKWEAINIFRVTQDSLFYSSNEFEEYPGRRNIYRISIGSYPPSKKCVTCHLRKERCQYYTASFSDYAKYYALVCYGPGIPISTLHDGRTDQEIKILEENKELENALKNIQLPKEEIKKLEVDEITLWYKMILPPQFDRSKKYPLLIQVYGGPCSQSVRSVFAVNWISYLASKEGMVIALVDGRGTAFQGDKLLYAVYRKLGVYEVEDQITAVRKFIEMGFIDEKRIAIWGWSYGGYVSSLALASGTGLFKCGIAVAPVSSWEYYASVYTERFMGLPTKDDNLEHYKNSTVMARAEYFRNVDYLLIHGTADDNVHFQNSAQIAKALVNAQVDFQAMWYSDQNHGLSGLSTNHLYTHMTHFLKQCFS
Sequence of FAP (Mus musculus (Mouse), UniProt P97321) (P97321 24-761): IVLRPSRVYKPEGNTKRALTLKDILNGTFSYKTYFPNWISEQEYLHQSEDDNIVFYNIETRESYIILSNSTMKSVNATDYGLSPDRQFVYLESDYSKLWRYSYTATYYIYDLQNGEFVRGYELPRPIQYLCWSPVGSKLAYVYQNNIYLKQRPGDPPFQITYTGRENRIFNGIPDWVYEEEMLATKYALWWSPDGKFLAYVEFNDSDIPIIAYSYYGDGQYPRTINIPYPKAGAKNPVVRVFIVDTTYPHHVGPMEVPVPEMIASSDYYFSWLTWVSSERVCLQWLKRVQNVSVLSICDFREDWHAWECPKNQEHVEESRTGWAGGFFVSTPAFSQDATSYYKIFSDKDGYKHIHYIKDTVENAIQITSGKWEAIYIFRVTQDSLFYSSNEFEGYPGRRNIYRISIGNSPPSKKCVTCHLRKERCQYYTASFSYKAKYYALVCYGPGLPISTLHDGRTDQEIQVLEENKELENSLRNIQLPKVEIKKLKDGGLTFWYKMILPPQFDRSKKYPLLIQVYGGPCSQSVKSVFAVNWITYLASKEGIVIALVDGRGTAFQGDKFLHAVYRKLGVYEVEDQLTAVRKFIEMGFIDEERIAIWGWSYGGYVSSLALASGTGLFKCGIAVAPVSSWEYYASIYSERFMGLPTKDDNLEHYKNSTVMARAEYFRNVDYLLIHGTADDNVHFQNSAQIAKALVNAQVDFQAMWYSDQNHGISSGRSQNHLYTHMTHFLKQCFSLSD
Sequence of FAP (Homo sapiens (Human), UniProt Q12884) (Q12884 38-760): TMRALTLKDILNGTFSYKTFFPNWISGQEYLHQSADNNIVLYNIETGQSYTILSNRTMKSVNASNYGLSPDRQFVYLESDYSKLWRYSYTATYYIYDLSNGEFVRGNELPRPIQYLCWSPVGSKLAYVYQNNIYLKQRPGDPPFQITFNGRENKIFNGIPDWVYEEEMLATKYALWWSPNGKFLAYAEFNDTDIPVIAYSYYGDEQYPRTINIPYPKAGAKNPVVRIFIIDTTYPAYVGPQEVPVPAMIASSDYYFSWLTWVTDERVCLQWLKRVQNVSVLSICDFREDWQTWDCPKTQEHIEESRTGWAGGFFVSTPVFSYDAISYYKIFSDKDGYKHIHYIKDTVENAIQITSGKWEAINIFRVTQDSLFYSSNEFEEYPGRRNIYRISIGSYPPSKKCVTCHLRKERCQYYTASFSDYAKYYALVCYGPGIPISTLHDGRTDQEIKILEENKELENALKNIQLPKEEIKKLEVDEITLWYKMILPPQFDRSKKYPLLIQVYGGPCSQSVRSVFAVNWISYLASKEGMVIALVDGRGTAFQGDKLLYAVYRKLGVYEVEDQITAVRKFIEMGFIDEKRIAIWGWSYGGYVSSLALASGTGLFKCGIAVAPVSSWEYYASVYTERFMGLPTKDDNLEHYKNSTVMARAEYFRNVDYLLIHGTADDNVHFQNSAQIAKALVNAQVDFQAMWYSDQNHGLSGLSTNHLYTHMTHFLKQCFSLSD
Sequence of human Fibroblast activation protein alpha (hFAP) (Q12884 38-760): as above
Sequence of Prolyl endopeptidase, Prolyl Oligopeptidase (hPREP) (P48147 whole entry): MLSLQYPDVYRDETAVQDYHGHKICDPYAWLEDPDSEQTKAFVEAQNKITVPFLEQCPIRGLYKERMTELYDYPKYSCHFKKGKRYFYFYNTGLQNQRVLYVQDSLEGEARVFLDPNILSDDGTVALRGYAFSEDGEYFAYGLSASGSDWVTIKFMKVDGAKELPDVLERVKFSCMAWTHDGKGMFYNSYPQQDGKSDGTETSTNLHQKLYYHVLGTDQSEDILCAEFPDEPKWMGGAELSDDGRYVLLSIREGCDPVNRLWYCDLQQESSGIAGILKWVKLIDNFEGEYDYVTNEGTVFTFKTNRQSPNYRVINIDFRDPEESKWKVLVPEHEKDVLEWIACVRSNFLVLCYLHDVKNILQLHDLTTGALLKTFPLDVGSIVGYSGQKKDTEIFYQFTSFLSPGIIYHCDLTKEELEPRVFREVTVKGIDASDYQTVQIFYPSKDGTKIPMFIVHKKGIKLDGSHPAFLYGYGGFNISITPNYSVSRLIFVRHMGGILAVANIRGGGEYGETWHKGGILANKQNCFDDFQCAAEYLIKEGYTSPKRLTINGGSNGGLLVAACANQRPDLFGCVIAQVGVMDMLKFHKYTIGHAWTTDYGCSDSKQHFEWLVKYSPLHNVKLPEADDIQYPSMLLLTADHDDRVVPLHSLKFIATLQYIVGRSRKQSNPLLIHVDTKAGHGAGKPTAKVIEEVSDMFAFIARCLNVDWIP

SMILES | hFAP Binding assay k(off) (hFAP (M39-A757)) | hFAP Binding assay k(on) (hFAP (M39-A757)) | IC50 [1] | IC50 (FAP [2]) | solubility (Kinetic solubility) | hHep CLint [3] | rHep CLint [4] | Papp (Caco-2 cell permeability) | Papp A→B (Caco-2 cell permeability) | Papp B→A (Caco-2 cell permeability) | efflux ratio (Caco-2 cell permeability) | microsomal CLint [5] | IC50 [6] | solubility (Kinetic solubility; [8]) | IC50 (FAP [7]; hFAP […]) | Kd (hFAP (M39-A757)) | microsomal CLint [5, 9] | IC50 (FAP [7]; hFAP 0.24 nM)
CC1(F)CN(c2ccc3nccc(C(=O)NCC(=O)N4CSC[C@H]4C#N)c3c2)C1 [Example 24, (R)—N-(2-(4-Cyanothiazolidin-3-yl)-2-oxoethyl)-6-(3-fluoro-3-methyl-azetidin-1-yl)quinoline-4-carboxamide] | 0.00048 s⁻¹ | 25000000 M⁻¹ s⁻¹ | 510 nM | 0.4 nM | – | – | – | – | – | – | – | – | – | – | – | – | – | –
N#C[C@@H]1CSCN1C(=O)CNC(=O)c1ccnc2ccc(N3CCC4(CC3)OCCO4)cc12 [Example 228, (R)—N-(2-(4-cyanothiazolidin-3-yl)-2-oxoethyl)-6-(1,4-dioxa-8-azaspiro[4.5]decan-8-yl)quinoline-4-carboxamide] | – | – | 1200 nM | – | 879 µM (≈ 411 µg/mL) | <1 μL/min/1E6 | 9 μL/min/1E6 | 0.9 ×10⁻⁶ cm/s | 25 ×10⁻⁶ cm/s | 27 ×10⁻⁶ cm/s | 0.9 | < 3 µL/min/mg | 0.087 nM | – | – | – | – | –
N#C[C@@H]1CSCN1C(=O)CNC(=O)c1ccnc2ccc(-c3cnc4n3CCCC4)cc12 [Example 175, (R)—N-(2-(4-Cyanothiazolidin-3-yl)-2-oxoethyl)-6-(5,6,7,8-tetrahydroimidazo[1,2-a]pyridin-3-yl)quinoline-4-carboxamide] | 0.00012 s⁻¹ | 1400000 M⁻¹ s⁻¹ | 760 nM | 0.4 nM | – | – | – | – | – | – | – | – | – | – | – | – | – | –
CC1(C)CCN(c2ccc3nccc(C(=O)NCC(=O)N4CSC[C@H]4C#N)c3c2)C(=O)O1 [Example 112, (R)—N-(2-(4-Cyanothiazolidin-3-yl)-2-oxoethyl)-6-(6,6-dimethyl-2-oxo-1,3-oxazinan-3-yl)quinoline-4-carboxamide] | 0.00014 s⁻¹ | 440000 M⁻¹ s⁻¹ | 3600 nM | 0.8 nM | – | – | – | – | – | – | – | – | – | – | – | – | – | –
Cc1nn(C2CCOCC2)c(C)c1-c1ccc2nccc(C(=O)NCC(=O)N3CSC[C@H]3C#N)c2c1 [Example 172, (R)—N-(2-(4-Cyanothiazolidin-3-yl)-2-oxoethyl)-6-(3,5-dimethyl-1-(tetrahydro-2H-pyran-4-yl)-1H-pyrazol-4-yl)quinoline-4-carboxamide] | 0.000076 s⁻¹ | 2400000 M⁻¹ s⁻¹ | 540 nM | 0.6 nM | – | – | – | – | – | – | – | – | – | – | – | – | – | –
CC1(C)CCN(c2ccc3nccc(C(=O)NCC(=O)N4CSC[C@H]4C#N)c3c2)CC1 [Example 33, (R)—N-(2-(4-Cyanothiazolidin-3-yl)-2-oxoethyl)-6-(4,4-dimethylpiperidin-1-yl)quinoline-4-carboxamide] | 0.000052 s⁻¹ | 1100000 M⁻¹ s⁻¹ | 220 nM | – | – | – | 44 μL/min/1E6 | – | 7.5 ×10⁻⁶ cm/s | 19 ×10⁻⁶ cm/s | 2.5 | – | 0.27 nM | 85 µM (≈ 37.2 µg/mL) | 0.34 nM | 0.059 nM | 92 µL/min/mg | –
Cc1cc(N2CCOCC2)cc2c(C(=O)NCC(=O)N3CSC[C@H]3C#N)ccnc12 [Example 9] | – | – | – | 0.6 nM | – | – | – | – | – | – | – | – | – | – | – | – | – | –
N#C[C@@H]1CSCN1C(=O)CNC(=O)c1ccnc2ccc(-c3cnn(C4CCOCC4)c3)cc12 [Example 173, (R)—N-(2-(4-Cyanothiazolidin-3-yl)-2-oxoethyl)-6-(1-(tetrahydro-2H-pyran-4-yl)-1H-pyrazol-4-yl)quinoline-4-carboxamide] | 0.000054 s⁻¹ | 110000 M⁻¹ s⁻¹ | 940 nM | 0.2 nM | – | – | – | – | – | – | – | – | – | – | – | – | – | –
Cc1ncccc1-c1ccc2nccc(C(=O)NCC(=O)N3CSC[C@H]3C#N)c2c1 [Example 128, (R)—N-(2-(4-Cyanothiazolidin-3-yl)-2-oxoethyl)-6-(2-methylpyridin-3-yl)-quinoline-4-carboxamide] | 0.00066 s⁻¹ | 5400000 M⁻¹ s⁻¹ | 110 nM | – | – | – | 11 μL/min/1E6 | – | 0.57 ×10⁻⁶ cm/s | 26 ×10⁻⁶ cm/s | 45 | – | 0.24 nM | 960 µM (≈ 401 µg/mL) | 0.45 nM | 0.15 nM | 27 µL/min/mg | –
N#C[C@@H]1CSCN1C(=O)CNC(=O)c1ccnc2ccc(-c3ccn[nH]3)cc12 [Example 196, (R)—N-(2-(4-Cyanothiazolidin-3-yl)-2-oxoethyl)-6-(1H-pyrazol-5-yl)-quinoline-4-carboxamide] | 0.00026 s⁻¹ | 3200000 M⁻¹ s⁻¹ | 84 nM | 0.2 nM | – | – | – | – | – | – | – | – | – | – | – | – | – | –
Cc1noc(C)c1-c1ccc2nccc(C(=O)NCC(=O)N3CSC[C@H]3C#N)c2c1 [Example 216, (R)—N-(2-(4-Cyanothiazolidin-3-yl)-2-oxoethyl)-6-(3,5-dimethylisoxazol-4-yl)quinoline-4-carboxamide] | 0.0009 s⁻¹ | 5200000 M⁻¹ s⁻¹ | 190 nM | – | – | – | 17 μL/min/1E6 | – | 0.62 ×10⁻⁶ cm/s | 40 ×10⁻⁶ cm/s | 65 | – | 1.7 nM | 710 µM (≈ 299 µg/mL) | 2.4 nM | 0.27 nM | 58 µL/min/mg | –
CO[C@H]1CCCN(c2ccc3nccc(C(=O)NCC(=O)N4CSC[C@H]4C#N)c3c2)C1 (mixture of isomers) [Example 41, N-(2-((R)-4-Cyanothiazolidin-3-yl)-2-oxoethyl)-6-((RS)-3-methoxypiperidin-1-yl)quinoline-4-carboxamide] | 0.000064 s⁻¹ | 680000 M⁻¹ s⁻¹ | 640 nM | – | – | – | 12 μL/min/1E6 | 16 ×10⁻⁶ cm/s | – | – | – | – | 0.16 nM | 620 µM | – | 0.093 nM | 30 µL/min/mg | 0.33 nM
COC1(C)CCN(c2ccc3nccc(C(=O)NCC(=O)N4CSC[C@H]4C#N)c3c2)CC1 [Example 42, (R)—N-(2-(4-Cyanothiazolidin-3-yl)-2-oxoethyl)-6-(4-methoxy-4-methylpiperidin-1-yl)quinoline-4-carboxamide] | 0.000054 s⁻¹ | 1800000 M⁻¹ s⁻¹ | 880 nM | – | – | 2.7 μL/min/1E6 | 7.6 μL/min/1E6 | – | 2.8 ×10⁻⁶ cm/s | 33 ×10⁻⁶ cm/s | 12 | – | 0.053 nM | – | – | 0.03 nM | 21 µL/min/mg | –
Cc1ccc(-c2ccc3nccc(C(=O)NCC(=O)N4CSC[C@H]4C#N)c3c2)cn1 [Example 177, (R)—N-(2-(4-Cyanothiazolidin-3-yl)-2-oxoethyl)-6-(6-methylpyridin-3-yl)-quinoline-4-carboxamide] | 0.000058 s⁻¹ | 100000 M⁻¹ s⁻¹ | 360 nM | – | – | – | 7.4 μL/min/1E6 | – | 1.3 ×10⁻⁶ cm/s | 22 ×10⁻⁶ cm/s | 17 | – | 0.11 nM | 40 µM (≈ 16.7 µg/mL) | 0.29 nM | 0.56 nM | 13 µL/min/mg | –
C[C@@H]1OCCN(c2ccc3nccc(C(=O)NCC(=O)N4CSC[C@H]4C#N)c3c2)[C@H]1C [Example 82, N-(2-((R)-4-Cyanothiazolidin-3-yl)-2-oxoethyl)-6-((2S,3S)-2,3-dimethyl-morpholino)quinoline-4-carboxamide] | 0.000071 s⁻¹ | 1400000 M⁻¹ s⁻¹ | 930 nM | 0.4 nM | – | – | – | – | – | – | – | – | – | – | – | – | – | –

Source: patent publication US20230312550A1, “N-(2-(4-CYANOTHIAZOLIDIN-3-YL)-2-OXOETHYL)-QUINOLINE-4-CARBOXAMIDES” (AstraZeneca AB, priority 2020, published 2023)
